Results published in patent US8242122B2, “Method and compounds for inhibition of cell death” (University of Central Florida Research Foundation, Inc., priority 2002, dated 2012).
Values joined by “and” are separate entries in the source; they are usually repeats but may differ in a detail not shown here. Equal entries are not always repeated. Where two headings read alike, the source gives them in different places.

Key:
Hu-plasmin = Hu-plasmin (Homo sapiens, UniProt P00747); conditions: read-out: IC50 Hu-plasmin; two independent experiments
[1] = tested on: caspase-9 (−/−) null fibroblasts
HeLa cells [2] = conditions: HeLa cells, 50, 40 and 20 μM, 2 h
His-Omi-134-458 [3] = biological target: T1, His-Omi-134-458 (Homo sapiens, UniProt O43464); conditions: 200 ng His-Omi, 5 μg β-casein, 30 min
MBP-Omi-(134-458) [4] = biological target: T2, MBP-Omi-(134-458) (Homo sapiens, UniProt O43464); conditions: 10 μM compound; after two rounds of screening and selection
HeLa cells [5] = experiment: Apoptosis in HeLa cells transfected with Omi-GVPS-GFP; conditions: increasing concentration of ucf-101
His-Omi-134-458 [6] = biological target: T1, His-Omi-134-458; conditions: read-out: IC50 on His-Omi; average from three independent experiments
Canine-Fxa = conditions: read-out: IC50 Canine-Fxa; two independent experiments
[7] = biological target: Hu-rec.-FVIIa (FVIIa/tissue factor) (Homo sapiens, UniProt P08709); conditions: read-out: IC50 Hu-rec.-FVIIa; two independent experiments
His-Omi-134-458 [8] = biological target: T1, His-Omi-134-458; conditions: 30 min at 37° C
MBP-Omi-(134-458) [9] = biological target: T2, MBP-Omi-(134-458)
MPT cells = experiment: Cisplatin-induced apoptosis in MPT cells, annexin V flow cytometry; conditions: 20 μM or 50 μM ucf-101 for 20 minutes, then cisplatin 6 hours
[10] = biological target: MBP-L56-(140-480) (L56/HtrA1) (Homo sapiens, UniProt Q92743); conditions: various concentrations; initial 20 min
Hu-kallikrein = Hu-kallikrein (Homo sapiens, UniProt P03952); conditions: read-out: IC50 Hu-kallikrein; two independent experiments
Rat-Fxa = Rat-Fxa (Rattus norvegicus, UniProt Q63207); conditions: read-out: IC50 Rat-Fxa; two independent experiments
Hu-u-PA = Hu-u-PA (Homo sapiens, UniProt P00749); conditions: read-out: IC50 Hu-u-PA; two independent experiments
Hu-t-PA = Hu-t-PA (Homo sapiens, UniProt P00750); conditions: read-out: IC50 Hu-t-PA; two independent experiments
Hu-thrombin = Hu-thrombin (Homo sapiens, UniProt P00734); conditions: read-out: IC50 Hu-thrombin; two independent experiments
Bovine-trypsin = Bovine-trypsin (Bos taurus, UniProt P00760); conditions: read-out: IC50 Bovine-trypsin; two independent experiments
Chain of Bovine-trypsin (P00760 24-246): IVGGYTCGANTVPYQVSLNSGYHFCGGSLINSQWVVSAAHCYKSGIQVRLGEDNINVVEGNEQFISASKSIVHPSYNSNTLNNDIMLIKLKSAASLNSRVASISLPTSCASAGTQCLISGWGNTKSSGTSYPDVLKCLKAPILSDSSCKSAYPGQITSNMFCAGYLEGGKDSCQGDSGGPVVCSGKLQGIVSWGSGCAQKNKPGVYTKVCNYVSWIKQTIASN

T1 sequence (O43464 134-458): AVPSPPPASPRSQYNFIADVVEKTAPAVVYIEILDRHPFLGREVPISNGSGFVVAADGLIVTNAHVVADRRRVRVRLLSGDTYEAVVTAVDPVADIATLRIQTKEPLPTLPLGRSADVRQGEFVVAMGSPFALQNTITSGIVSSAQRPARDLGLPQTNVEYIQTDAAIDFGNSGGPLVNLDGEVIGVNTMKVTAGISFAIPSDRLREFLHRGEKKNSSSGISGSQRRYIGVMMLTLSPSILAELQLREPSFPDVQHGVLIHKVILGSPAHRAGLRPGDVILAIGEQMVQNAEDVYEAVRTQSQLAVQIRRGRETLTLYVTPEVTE
T2 sequence (O43464 134-458): as above
Chain of Hu-kallikrein (P03952 391-638 limits assumed): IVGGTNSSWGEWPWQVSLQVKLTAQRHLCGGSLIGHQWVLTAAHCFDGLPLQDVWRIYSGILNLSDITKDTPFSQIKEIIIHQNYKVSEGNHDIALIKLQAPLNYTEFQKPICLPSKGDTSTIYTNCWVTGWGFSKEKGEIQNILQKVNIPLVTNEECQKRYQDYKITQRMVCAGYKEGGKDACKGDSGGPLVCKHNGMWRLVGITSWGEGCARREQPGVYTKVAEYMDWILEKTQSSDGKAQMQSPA
Chain of Hu-kallikrein (P03952 20-390 limits assumed): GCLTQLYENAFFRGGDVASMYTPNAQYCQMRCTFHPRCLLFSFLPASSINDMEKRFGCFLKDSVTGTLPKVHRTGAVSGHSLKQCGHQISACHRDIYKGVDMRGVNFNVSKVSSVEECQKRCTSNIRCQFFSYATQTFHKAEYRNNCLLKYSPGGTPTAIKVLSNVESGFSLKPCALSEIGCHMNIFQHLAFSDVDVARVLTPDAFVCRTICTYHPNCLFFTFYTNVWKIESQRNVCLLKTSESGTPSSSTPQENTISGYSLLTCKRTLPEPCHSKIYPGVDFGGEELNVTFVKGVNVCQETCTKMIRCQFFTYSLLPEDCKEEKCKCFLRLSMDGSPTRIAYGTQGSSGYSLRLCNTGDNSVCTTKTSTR
Chain of Hu-plasmin (P00747 581-810 limits assumed): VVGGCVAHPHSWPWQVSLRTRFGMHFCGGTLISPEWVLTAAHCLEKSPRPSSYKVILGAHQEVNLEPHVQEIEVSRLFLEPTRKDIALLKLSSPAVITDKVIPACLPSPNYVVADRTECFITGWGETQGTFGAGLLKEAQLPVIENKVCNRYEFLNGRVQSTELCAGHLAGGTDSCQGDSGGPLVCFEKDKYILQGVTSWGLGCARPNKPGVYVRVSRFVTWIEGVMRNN
Chain of Hu-plasmin (P00747 97-580 limits assumed): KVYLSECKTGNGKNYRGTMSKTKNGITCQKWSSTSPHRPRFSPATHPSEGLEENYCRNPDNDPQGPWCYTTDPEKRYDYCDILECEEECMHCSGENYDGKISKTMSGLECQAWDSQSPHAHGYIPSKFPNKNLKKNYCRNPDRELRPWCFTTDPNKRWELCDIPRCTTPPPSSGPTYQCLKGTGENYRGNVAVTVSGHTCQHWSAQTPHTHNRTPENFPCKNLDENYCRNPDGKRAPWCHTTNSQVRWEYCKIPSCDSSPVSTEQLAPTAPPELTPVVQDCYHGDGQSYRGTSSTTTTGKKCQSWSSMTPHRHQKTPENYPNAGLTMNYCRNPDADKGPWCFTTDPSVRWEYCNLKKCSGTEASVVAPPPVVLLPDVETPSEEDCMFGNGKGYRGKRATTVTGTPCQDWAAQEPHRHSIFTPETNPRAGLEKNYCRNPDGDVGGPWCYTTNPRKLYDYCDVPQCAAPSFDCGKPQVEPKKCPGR
Chain of Rat-Fxa (Q63207 232-482 limits assumed): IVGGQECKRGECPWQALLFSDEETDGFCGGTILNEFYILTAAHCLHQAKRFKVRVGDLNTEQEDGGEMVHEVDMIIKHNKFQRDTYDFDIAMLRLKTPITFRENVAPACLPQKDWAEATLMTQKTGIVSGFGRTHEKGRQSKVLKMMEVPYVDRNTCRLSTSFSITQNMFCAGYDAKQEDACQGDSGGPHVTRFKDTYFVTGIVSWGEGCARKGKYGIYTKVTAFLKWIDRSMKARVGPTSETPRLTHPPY
Chain of Rat-Fxa (Q63207 41-180 limits assumed): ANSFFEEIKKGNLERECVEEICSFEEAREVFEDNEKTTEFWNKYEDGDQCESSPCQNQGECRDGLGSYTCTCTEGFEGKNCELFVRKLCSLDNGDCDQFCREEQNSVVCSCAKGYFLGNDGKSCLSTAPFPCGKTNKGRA
Chain of Hu-rec.-FVIIa (FVIIa/tissue factor) (P08709 213-466 limits assumed): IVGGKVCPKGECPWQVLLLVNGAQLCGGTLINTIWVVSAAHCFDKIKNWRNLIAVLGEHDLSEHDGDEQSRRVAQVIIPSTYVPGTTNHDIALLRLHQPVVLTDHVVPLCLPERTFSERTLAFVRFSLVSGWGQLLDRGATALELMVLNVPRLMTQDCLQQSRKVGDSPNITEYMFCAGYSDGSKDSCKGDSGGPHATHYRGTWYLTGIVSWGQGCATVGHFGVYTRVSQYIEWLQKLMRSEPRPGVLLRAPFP
Chain of Hu-rec.-FVIIa (FVIIa/tissue factor) (P08709 61-212 limits assumed): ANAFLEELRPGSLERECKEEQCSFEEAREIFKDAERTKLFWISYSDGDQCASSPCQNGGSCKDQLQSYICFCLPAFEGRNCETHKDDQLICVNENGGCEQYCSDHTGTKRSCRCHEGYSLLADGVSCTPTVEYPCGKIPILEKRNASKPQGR
Chain of Hu-rec.-FVIIa (FVIIa/tissue factor) (P13726 33-295 partner): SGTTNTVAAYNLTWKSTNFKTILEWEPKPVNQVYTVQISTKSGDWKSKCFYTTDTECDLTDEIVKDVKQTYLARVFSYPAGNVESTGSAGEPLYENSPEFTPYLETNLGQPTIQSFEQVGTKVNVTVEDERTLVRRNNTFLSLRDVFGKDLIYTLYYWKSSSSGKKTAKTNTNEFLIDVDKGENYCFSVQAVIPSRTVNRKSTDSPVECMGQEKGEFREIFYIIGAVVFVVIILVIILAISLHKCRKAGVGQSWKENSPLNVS
Chain of MBP-L56-(140-480) (L56/HtrA1) (Q92743 140-480): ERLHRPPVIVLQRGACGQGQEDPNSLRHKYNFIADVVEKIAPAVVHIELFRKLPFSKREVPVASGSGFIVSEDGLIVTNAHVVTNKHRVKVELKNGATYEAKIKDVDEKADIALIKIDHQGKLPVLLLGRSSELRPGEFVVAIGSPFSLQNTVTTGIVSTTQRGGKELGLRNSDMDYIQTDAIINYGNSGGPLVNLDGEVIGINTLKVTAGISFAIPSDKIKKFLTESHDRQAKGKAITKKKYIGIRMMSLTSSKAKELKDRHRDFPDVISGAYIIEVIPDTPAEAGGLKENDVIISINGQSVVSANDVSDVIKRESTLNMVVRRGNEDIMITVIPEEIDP
Chain of Hu-t-PA (P00750 36-562): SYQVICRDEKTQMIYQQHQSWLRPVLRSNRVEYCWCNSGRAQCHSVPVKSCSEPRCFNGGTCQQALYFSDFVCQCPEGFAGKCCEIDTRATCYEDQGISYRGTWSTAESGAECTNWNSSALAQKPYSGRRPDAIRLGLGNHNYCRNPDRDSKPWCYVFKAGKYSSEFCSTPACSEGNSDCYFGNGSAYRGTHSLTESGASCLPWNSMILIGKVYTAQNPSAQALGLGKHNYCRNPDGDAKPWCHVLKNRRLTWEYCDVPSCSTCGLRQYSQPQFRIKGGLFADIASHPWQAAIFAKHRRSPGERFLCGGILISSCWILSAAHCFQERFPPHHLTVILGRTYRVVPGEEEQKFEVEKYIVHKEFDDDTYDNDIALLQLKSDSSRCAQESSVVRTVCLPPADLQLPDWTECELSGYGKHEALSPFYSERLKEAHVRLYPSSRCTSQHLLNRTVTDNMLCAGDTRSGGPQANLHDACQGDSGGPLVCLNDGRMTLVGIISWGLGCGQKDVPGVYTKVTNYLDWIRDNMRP

With `Cc1cccc([N+](=O)[O-])c1-c1ccc(C=C2C(=O)N(c3ccccc3)C(=S)N(c3ccccc3)C2=O)o1` [ucf-101] the IC50 (Hu-plasmin) was > 500 µM and 400 µM, the cytotoxicity ([1]; 25 μM, M-Omi-GFP and control transfected cells) was “cytotoxic side effect that caused apoptosis” and the “reduction of Omi-induced apoptosis” value ([1]; M-Omi-GFP transfected cells, up to 10 μM, 36 h) was “up to 40%”. The “effect on control (vector alone) transfected cells” value ([1]; pEGFP-N1 transfected cells, up to 10 μM) was “no effect”, the “apoptosis of fibroblasts transfected with cytoplasmic Omi” value ([1]; treated with ucf-101) was “apoptosis was dramatically reduced” and the “ability to enter mammalian cells (cytoplasmic fluorescence)” value (HeLa cells [2]) was “cells are permeable to this chemical”. For the same compound, the “inhibition of His-Omi-(134-458) activity against β-casein” value (His-Omi-134-458 [3]; 80 μM) was “inhibit completely”, the “inhibition of His-Omi-(134-458) activity against β-casein” value (His-Omi-134-458 [3]; 10-100 μM (lanes 4-9)) was “concentration-dependent manner” and the “inhibition of MBP-Omi-(134-458) activity” value (MBP-Omi-(134-458) [4]) was greater than 50%. For the same compound, the “protease activity and apoptosis induced by Omi-GVPS-GFP” value (HeLa cells [5]) was “inhibited the protease activity and apoptosis”, the IC50 (His-Omi-134-458 [6]) was 9.5 µM and the IC50 (Canine-Fxa) was 430 µM and 360 µM. For the same compound, the IC50 [7] was greater than 500 µM, the “cleavage of two kidney cytoplasmic polypeptides (14-3-3, annexin V) by His-Omi” value (His-Omi-134-458 [8]) was “cleavage was prevented” and the mode of inhibition (MBP-Omi-(134-458) [9]; 10 μM ucf-101, various amounts of Dcasein-FITC) was “competitive inhibitor”. For the same compound, the “inhibition of MBP-Omi-(134-458) activity” value (MBP-Omi-(134-458) [9]; 20 μM compound, 10 μg Dcasein-FITC, 2 μg enzyme) was “more than 78%”, the “effect of longer preincubation with enzyme on inhibition (reversibility)” value (MBP-Omi-(134-458) [9]; preincubated at 37° C for 40 min or 1 h, various concentrations) was “inhibition was reduced” and the “cisplatin-induced apoptosis (annexin V positive cells)” value (MPT cells) was “reduces apoptosis in a dose-dependent manner”. The “inhibition of L56-(140-480) activity” value [10] was “effective inhibitor of the activity of His-L56-(140-480) but to a lesser extent than His-Omi-(134-458)”, the IC50 (Hu-kallikrein) was 200 µM and 250 µM and the IC50 (Rat-Fxa) was 410 µM and > 500 µM. For the same compound, the IC50 (Hu-u-PA) was no less than 500 µM, the IC50 (Hu-t-PA) was 390 µM and the IC50 (Hu-thrombin) was greater than 500 µM. The IC50 (Bovine-trypsin) was greater than 500 µM.
